Measurements published in ChEMBL document CHEMBL5465560, “Selectivity Literature for EUbOPEN Chemogenomic Library” (2024).
One block for each molecule: values may come before it.

Assays:
[1] = target: T1, Serine/threonine-protein kinase BRSK1 (Homo sapiens) (UniProt Q8TDC3); assay: Selectivity interaction (Ambit KINOMEscan and KiNATiv profiling in Jurkat cells) EUB0000090b BRSK1; assay type: cell-based; settings: at 1 µM
T1 sequence (whole entry): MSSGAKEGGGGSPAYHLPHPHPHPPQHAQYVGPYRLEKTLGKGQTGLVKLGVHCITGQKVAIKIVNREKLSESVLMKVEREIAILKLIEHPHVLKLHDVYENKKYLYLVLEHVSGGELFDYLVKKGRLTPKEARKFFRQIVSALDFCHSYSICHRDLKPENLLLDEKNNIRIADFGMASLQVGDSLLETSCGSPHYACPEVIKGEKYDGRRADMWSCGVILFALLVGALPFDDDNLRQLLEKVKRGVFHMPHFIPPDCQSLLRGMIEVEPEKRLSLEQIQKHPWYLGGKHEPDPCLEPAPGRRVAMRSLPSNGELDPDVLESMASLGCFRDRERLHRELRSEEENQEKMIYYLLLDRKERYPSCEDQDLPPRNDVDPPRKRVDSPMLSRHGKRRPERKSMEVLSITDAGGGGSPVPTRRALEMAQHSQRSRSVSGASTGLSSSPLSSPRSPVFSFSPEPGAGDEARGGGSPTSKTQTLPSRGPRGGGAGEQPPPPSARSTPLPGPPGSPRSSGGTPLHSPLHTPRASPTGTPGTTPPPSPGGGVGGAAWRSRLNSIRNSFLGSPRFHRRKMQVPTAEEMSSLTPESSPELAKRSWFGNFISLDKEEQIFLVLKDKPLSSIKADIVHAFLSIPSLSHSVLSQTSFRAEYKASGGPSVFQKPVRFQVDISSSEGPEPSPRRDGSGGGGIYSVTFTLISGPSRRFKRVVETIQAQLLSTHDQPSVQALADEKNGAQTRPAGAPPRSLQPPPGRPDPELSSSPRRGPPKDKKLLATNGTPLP

[2] = target: T2, Ephrin type-B receptor 3 (Homo sapiens) (UniProt P54753); assay: Selectivity interaction (ActivX KiNativ screen (kinase selectivity in THP-1 cell lysates)) EUB0000639a EPHB3; assay type: subcellular; settings: lysate
T2 sequence (whole entry): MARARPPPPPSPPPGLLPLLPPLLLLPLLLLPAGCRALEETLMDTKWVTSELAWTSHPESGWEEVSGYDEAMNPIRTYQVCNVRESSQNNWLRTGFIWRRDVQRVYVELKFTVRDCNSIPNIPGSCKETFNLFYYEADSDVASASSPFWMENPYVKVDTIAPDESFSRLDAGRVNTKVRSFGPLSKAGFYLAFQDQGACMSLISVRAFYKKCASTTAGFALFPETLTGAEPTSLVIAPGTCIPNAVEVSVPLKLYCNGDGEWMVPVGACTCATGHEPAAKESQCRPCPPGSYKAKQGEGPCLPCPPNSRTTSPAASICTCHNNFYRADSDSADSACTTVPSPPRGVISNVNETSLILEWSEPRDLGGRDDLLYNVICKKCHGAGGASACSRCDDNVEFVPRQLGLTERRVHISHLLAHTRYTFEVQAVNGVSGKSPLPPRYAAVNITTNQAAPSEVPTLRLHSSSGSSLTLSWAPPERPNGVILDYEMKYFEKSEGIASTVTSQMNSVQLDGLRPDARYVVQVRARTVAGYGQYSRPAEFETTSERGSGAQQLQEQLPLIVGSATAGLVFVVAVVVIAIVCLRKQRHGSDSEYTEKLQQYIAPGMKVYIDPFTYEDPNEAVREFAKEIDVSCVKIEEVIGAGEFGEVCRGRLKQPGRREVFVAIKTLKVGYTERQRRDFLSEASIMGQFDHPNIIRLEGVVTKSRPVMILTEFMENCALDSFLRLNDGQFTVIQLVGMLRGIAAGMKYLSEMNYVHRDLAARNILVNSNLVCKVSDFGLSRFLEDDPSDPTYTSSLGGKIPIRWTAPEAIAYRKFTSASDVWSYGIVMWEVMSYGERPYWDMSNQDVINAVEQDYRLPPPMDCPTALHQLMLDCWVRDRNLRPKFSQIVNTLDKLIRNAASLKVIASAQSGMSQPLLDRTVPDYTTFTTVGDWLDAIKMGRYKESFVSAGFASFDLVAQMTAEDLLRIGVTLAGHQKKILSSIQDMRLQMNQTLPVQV

[3] = target: Tudor domain-containing protein 3 (Homo sapiens) (UniProt Q9H7E2); assay: Selectivity interaction (PWWP, WD40, and Tudor domain panel (DSLS measurements, literature)) EUB0000270b TDRD3
Chain of Tudor domain-containing protein 3 (Homo sapiens) (Q9H7E2 whole entry, the tested form may be a part): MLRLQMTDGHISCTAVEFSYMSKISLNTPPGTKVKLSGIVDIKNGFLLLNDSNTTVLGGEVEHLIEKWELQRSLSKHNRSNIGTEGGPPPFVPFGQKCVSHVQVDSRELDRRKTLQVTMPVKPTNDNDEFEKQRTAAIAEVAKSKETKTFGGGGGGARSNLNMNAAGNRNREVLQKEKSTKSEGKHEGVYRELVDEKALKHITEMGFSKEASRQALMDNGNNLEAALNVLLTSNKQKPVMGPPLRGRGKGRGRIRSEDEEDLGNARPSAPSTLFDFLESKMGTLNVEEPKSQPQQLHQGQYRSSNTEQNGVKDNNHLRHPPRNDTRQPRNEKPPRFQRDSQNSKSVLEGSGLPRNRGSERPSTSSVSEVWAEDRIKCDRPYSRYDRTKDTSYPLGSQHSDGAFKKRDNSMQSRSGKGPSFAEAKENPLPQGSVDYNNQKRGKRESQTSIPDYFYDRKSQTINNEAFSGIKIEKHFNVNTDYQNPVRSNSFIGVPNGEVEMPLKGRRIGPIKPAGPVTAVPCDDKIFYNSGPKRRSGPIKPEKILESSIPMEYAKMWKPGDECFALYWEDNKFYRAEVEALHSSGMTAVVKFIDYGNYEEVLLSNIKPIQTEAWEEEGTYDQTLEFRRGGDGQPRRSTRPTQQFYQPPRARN

[4] = target: Serine/threonine-protein kinase pim-2 (Homo sapiens, UniProt Q9P1W9); assay: Selectivity interaction (Kinase panel (Z-LYTE Assay)) EUB0001632a PIM2; settings: at 10 µM
Chain of Serine/threonine-protein kinase pim-2 (Q9P1W9 whole entry, looked up): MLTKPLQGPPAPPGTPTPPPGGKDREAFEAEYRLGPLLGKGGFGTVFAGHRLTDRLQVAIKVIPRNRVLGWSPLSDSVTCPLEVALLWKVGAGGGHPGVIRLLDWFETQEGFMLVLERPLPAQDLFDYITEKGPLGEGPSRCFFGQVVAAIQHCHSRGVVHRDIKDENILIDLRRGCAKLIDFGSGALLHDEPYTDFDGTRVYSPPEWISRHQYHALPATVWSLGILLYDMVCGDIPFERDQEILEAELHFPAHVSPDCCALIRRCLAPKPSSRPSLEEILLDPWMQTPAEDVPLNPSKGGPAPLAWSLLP

[5] = target: MAP kinase-interacting serine/threonine-protein kinase 2 (Homo sapiens, UniProt Q9HBH9); assay: Selectivity interaction (KinomeScan (DiscoverX)) EUB0000695a MKNK2; settings: at 100 nM
Chain of MAP kinase-interacting serine/threonine-protein kinase 2 (Q9HBH9 whole entry, looked up): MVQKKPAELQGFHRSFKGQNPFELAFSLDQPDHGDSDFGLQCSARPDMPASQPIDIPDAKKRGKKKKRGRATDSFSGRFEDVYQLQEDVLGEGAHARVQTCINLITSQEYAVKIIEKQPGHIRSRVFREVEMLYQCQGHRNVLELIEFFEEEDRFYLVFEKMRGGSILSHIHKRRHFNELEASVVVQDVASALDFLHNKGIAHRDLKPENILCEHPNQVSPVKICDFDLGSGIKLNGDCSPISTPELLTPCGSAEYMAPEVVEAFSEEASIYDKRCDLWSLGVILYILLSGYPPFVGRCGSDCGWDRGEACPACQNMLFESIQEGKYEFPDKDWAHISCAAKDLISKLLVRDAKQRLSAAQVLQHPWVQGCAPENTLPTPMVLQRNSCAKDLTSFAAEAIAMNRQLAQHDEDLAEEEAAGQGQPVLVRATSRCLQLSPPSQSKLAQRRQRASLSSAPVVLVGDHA

[6] = target: T3, Dual specificity mitogen-activated protein kinase kinase 6 (Homo sapiens) (UniProt P52564); assay: Selectivity interaction (ActivX KiNativ screen (ex vivo kinase selectivity in human PBMCs)) EUB0001619a MAP2K6; assay type: cell-based; settings: PBMC, at 1 µM
T3 sequence (whole entry): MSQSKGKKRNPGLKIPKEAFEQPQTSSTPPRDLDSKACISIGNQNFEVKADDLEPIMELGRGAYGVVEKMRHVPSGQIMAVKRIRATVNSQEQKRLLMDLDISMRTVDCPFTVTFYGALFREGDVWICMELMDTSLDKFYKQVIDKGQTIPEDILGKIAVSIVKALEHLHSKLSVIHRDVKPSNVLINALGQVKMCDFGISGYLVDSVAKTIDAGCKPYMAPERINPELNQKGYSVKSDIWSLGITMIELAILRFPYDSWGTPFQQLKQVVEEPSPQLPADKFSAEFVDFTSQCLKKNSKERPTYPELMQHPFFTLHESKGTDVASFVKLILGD

[7] = target: Serine/threonine-protein kinase Nek4 (Homo sapiens) (UniProt P51957); assay: Selectivity interaction (SelectScreen profiling (Invitrogen)) EUB0000607a NEK4; settings: at 2 µM
Chain of Serine/threonine-protein kinase Nek4 (Homo sapiens) (P51957 whole entry, looked up): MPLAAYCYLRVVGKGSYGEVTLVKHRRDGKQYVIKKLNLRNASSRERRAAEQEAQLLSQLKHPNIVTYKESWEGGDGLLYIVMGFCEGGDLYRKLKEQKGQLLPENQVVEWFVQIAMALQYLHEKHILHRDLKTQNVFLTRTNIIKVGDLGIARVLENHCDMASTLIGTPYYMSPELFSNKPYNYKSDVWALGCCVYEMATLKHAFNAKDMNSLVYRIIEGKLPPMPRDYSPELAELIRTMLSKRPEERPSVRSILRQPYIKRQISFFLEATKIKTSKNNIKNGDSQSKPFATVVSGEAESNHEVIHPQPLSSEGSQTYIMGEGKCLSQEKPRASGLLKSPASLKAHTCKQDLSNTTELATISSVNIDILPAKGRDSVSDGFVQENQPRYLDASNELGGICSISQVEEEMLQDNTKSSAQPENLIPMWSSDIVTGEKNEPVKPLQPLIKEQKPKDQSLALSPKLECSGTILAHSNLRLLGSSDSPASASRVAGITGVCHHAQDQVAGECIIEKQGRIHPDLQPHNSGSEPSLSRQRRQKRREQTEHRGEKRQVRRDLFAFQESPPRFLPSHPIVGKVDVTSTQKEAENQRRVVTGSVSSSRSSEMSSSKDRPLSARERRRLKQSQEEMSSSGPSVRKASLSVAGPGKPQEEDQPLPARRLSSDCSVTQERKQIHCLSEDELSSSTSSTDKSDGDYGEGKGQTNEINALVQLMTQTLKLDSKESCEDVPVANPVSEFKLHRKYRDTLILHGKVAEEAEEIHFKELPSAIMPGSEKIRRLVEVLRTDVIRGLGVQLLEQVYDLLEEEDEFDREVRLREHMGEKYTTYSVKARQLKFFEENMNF

Structure (SMILES): CN(C)C/C=C/C(=O)Nc1ccc(C(=O)N2CCCC(Nc3ncc(Cl)c(-c4c[nH]c5ccccc45)n3)C2)cc1 (stereo unspecified)
% of control [1]: 84%

% of inhibition ([2]; at 0.01 µM): -3.9% | % of inhibition ([2]; at 0.04 µM): -40.1% | % of inhibition ([2]; at 0.2 µM): -48.3% | % of inhibition ([2]; at 1 µM): -34.8% | % of inhibition ([2]; at 5 µM): -22.6%
Structure (SMILES): CC[C@@H]1[C@H](F)C(=O)N[C@@H]1COc1nccc2cc(C(N)=O)c(OC)cc12 [ZIMLOVISERTIB]

dTagg [3]: 0.8 K
Structure (SMILES): Cc1cc(CN)cc(C)c1-c1ncn(C)c1-c1cncn1C

% of control [4]: 0.824%
Structure (SMILES): Cn1cc(-n2cnc3c(NCc4nc5cc(Cl)c(Cl)cc5[nH]4)nc(N4CCOCC4)nc32)cn1

Structure (SMILES): Cc1cc(F)c(C(=O)Nc2cccc(-c3nncn3C(C)C)n2)cc1-n1cnc(C2CC2)c1
% of control [5]: 75%

Structure (SMILES): N#Cc1cccc(-c2c[nH]c3ncnc(N4CCOCC4)c23)c1
% of inhibition [6]: 9%

Structure (SMILES): CNC(=O)Nc1ccc(-c2nc(N3CC4CCC(C3)O4)c3cnn(C4CCC5(CC4)OCCO5)c3n2)cc1
% of inhibition [7]: 7%
